We go through 32 compounds from patent US20240382474A1, “ENPP1 MODULATORS AND USES THEREOF” (Vir Biotechnology, Inc., priority 2021, published 2024).

For the assay, the target named is T1, human ENPP1 enzymatic domain (Homo sapiens, UniProt P22413).
T1 construct: recombinant protein containing the human ENPP1 enzymatic domain; purchased Viva Biotech
T1 sequence (P22413 191-591 limits assumed): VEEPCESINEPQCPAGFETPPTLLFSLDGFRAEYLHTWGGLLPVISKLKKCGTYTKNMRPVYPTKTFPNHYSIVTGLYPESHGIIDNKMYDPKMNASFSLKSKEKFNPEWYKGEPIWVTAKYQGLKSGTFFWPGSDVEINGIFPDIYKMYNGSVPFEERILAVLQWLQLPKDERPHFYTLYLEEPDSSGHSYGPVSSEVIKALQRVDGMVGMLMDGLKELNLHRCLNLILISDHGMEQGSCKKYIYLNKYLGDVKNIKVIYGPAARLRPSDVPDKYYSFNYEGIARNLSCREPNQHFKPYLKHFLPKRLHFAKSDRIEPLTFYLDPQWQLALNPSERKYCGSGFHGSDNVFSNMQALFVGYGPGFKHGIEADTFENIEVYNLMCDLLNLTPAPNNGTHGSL
Briefly: ENPP1 Enzymatic Inhibition Assay (2′3′-cGAMP substrate, AMP-Glo luminescence). It counts as biochemical. Conditions: 1 nM ENPP1, 20 uM 2′3′-cGAMP, 30 minutes at 37° C. The protocol: The inhibition of ENPP1's phosphodiesterase activity were tested in a purified enzymatic assay using 2′3′-cyclic GAMP as a substrate which allowed for the release of cleaved AMP to be monitored using a luminescent assay.
Putative inhibitors were diluted in assay buffer (50 mM Tris pH 8.0, 250 mM NaCl, 0.5 mM CaCl2), 1 uM ZnCl2, 1% DMSO) and pre-incubated for 15 minutes at 37° C. with recombinant protein containing the human ENPP1 enzymatic domain (Viva Biotech). The enzymatic reaction was initiated upon addition of the 2′3′-cGAMP substrate. The final reaction concentrations were 1 nM ENPP1 and 20 uM 2′3′-cGAMP substrate in a 25 uL volume. Inhibitor concentrations ranged from 10 uM to 0.056 nM. The reaction was incubated for 30 minutes at 37° C.
After reacting for 30 minutes, the amount of AMP generated from the cleavage of 2′3′-cGAMP was determined using the Promega AMP-Glo method according to the manufacturer's protocol. First, AMP-Glo reagent 1 was added and incubated with the reaction mix for 1 hour at room temperature. Second, AMP Detection solution was added and the mixture was incubated for an additional hour. The luminescence of the mixture was read on a Perkin Elmer Ensight plate reader.
The maximum and minimum levels of ENPP1 activity were established using no inhibitor and no enzyme controls, respectively. The activity observed using ENPP1 inhibitors was quantified as the percent of activity relative to these controls. IC50 values were calculated using CDD Vault by fitting a sigmoidal variable slope nonlinear regression model to the data.
A word on the IC50: it is the point on the concentration scale where inhibition reaches its midpoint. Low values mean higher potency, high ones lower potency. Compound `CN[S@](=N)(=O)c1ccc(Oc2ccnc3cc(OC)ccc23)cc1` [Compound 2, (S)-4-((7-methoxyquinolin-4-yl)oxy)-N-methylbenzenesulfonimidamide] displayed a half-inhibitory concentration (IC50) of less than 10 nM.
The value for `COc1ccc2c(Oc3ccc([S@](=N)(=O)NCCO)cc3)ccnc2c1` [Compound 3, (R)-N-(2-hydroxyethyl)-4-((7-methoxyquinolin-4-yl)oxy)benzenesulfonimidamide] was 10 to 100 nM.
As for `COc1ccc2c(Oc3ccc([S@@](=N)(=O)NCCO)cc3)ccnc2c1` [Compound 4, (S)-N-(2-hydroxyethyl)-4-((7-methoxyquinolin-4-yl)oxy)benzenesulfonimidamide], the IC50 was less than 10 nM.
The value for `COc1ccc2c(Oc3ccc([S@](=N)(=O)N[C@@H](C)CO)cc3)ccnc2c1` [Compound 5, (R)-N-((S)-1-hydroxypropan-2-yl)-4-((7-methoxyquinolin-4-yl)oxy)benzenesulfonimidamide] was 10 to 100 nM.
The value for `COc1ccc2c(Oc3ccc([S@@](=N)(=O)N[C@@H](C)CO)cc3)ccnc2c1` [Compound 6, (S)-N-((S)-1-hydroxypropan-2-yl)-4-((7-methoxyquinolin-4-yl)oxy)benzenesulfonimidamide] was less than 10 nM.
The compound `COc1ccc2c(Oc3ccc([S@](=N)(=O)NC[C@H](C)O)cc3)ccnc2c1` [Compound 7, (R)-N-((S)-2-hydroxypropyl)-4-((7-methoxyquinolin-4-yl)oxy)benzenesulfonimidamide] showed an IC50 of 10 to 100 nM.
`COc1ccc2c(Oc3ccc([S@@](=N)(=O)NC[C@H](C)O)cc3)ccnc2c1` [Compound 8, (S)-N-((S)-2-hydroxypropyl)-4-((7-methoxyquinolin-4-yl)oxy)benzenesulfonimidamide] registered an IC50 of less than 10 nM.
As for `COc1ccc2c(Oc3ccc([S@](=N)(=O)NCC(C)(C)O)cc3)ccnc2c1` [Compound 9, (R)-N-(2-hydroxy-2-methylpropyl)-4-((7-methoxyquinolin-4-yl)oxy)benzenesulfonimidamide], the figure is 10 to 100 nM.
The value for `COc1ccc2c(Oc3ccc([S@@](=N)(=O)NCC(C)(C)O)cc3)ccnc2c1` [Compound 10, (S)-N-(2-hydroxy-2-methylpropyl)-4-((7-methoxyquinolin-4-yl)oxy)benzenesulfonimidamide] was less than 10 nM.
As for `COc1ccc2c(Oc3ccc([S@](=N)(=O)N[C@H](C)CO)cc3)ccnc2c1` [Compound 11, (R)-N-((R)-1-hydroxypropan-2-yl)-4-((7-methoxyquinolin-4-yl)oxy)benzenesulfonimidamide], the figure is 10 to 100 nM; as for `COc1ccc2c(Oc3ccc([S@@](=N)(=O)N[C@H](C)CO)cc3)ccnc2c1` [Compound 12, (S)-N-((R)-1-hydroxypropan-2-yl)-4-((7-methoxyquinolin-4-yl)oxy)benzenesulfonimidamide], less than 10 nM; as for `COc1ccc2c(Oc3ccc([S@](=N)(=O)NCC4CC4)cc3)ccnc2c1` [Compound 13, (R)-N-(cyclopropylmethyl)-4-((7-methoxyquinolin-4-yl)oxy)benzenesulfonimidamide], greater than 100 nM.
Consider `COc1ccc2c(Oc3ccc([S@@](=N)(=O)NCC4CC4)cc3)ccnc2c1` [Compound 14, (S)-N-(cyclopropylmethyl)-4-((7-methoxyquinolin-4-yl)oxy)benzenesulfonimidamide], for which the IC50 is less than 10 nM.
As for `CN[S@@](=N)(=O)c1ccc(Nc2ncnc3cc(OC)ccc23)cc1` [Compound 15, (R)-4-((7-methoxyquinazolin-4-yl)amino)-N-methylbenzenesulfonimidamide], the figure is 10 to 100 nM.
The compound `CN[S@](=N)(=O)c1ccc(Nc2ncnc3cc(OC)ccc23)cc1` [Compound 16, (S)-4-((7-methoxyquinazolin-4-yl)amino)-N-methylbenzenesulfonimidamide] returned an IC50 of less than 10 nM.
As for `CN[S@@](=N)(=O)c1ccc(Nc2ccnc3cc(OC)ccc23)cc1` [Compound 17, (R)-4-((7-methoxyquinolin-4-yl)amino)-N-methylbenzenesulfonimidamide], the figure is less than 10 nM; as for `CN[S@](=N)(=O)c1ccc(Nc2ccnc3cc(OC)ccc23)cc1` [Compound 18, (S)-4-((7-methoxyquinolin-4-yl)amino)-N-methylbenzenesulfonimidamide], less than 10 nM; as for `COc1ccc2c(Nc3ccc([S@](=N)(=O)NCC4CC4)cc3)ccnc2c1` [Compound 19, (R)-N-(cyclopropylmethyl)-4-((7-methoxyquinolin-4-yl)amino)benzenesulfonimidamide], less than 10 nM.
The value for `COc1ccc2c(Nc3ccc([S@@](=N)(=O)NCC4CC4)cc3)ccnc2c1` [Compound 20, (S)-N-(cyclopropylmethyl)-4-((7-methoxyquinolin-4-yl)amino)benzenesulfonimidamide] was less than 10 nM.
The value for `COc1ccc2c(Nc3ccc([S@@](=N)(=O)NCC4CC4)cc3)c(C#N)cnc2c1` [Compound 21, (S)-4-((3-cyano-7-methoxyquinolin-4-yl)amino)-N-(cyclopropylmethyl)benzenesulfonimidamide] was 10 to 100 nM; that for `N=[S@](=O)(NCC1CC1)c1ccc(Nc2ccnc3cc(OC(F)F)ccc23)cc1` [Compound 22, (S)-N-(cyclopropylmethyl)-4-((7-(difluoromethoxy)quinolin-4-yl)amino)benzenesulfonimidamide] was less than 10 nM.
Compound `COc1ccc2c(Oc3ccc([S@](=N)(=O)NC[C@@H](C)O)cc3)ccnc2c1` [Compound 25, (R)-N-((R)-2-hydroxypropyl)-4-((7-methoxyquinolin-4-yl)oxy)benzenesulfonimidamide] gave an IC50 of less than 10 nM.
In the case of `COc1ccc2c(Oc3ccc([S@](=N)(=O)N[C@H](C)c4ccnn4C)cc3)ccnc2c1` [Compound 27, (R)-4-((7-methoxyquinolin-4-yl)oxy)-N-((R)-1-(1-methyl-1H-pyrazol-5-yl)ethyl)benzenesulfonimidamide], the IC50 lay in the range of 10 to 100 nM.
Turning to `COc1ccc2c(Oc3ccc([S@@](=N)(=O)N[C@H](C)c4ccnn4C)cc3)ccnc2c1` [Compound 28, (S)-4-((7-methoxyquinolin-4-yl)oxy)-N-((R)-1-(1-methyl-1 H-pyrazol-5-yl)ethyl)benzenesulfonimidamide], the IC50 is less than 10 nM.
Compound `COc1ccc2c(Oc3ccc([S@](=N)(=O)NC(C)c4ccn(C)n4)cc3)ccnc2c1` (stereo partly drawn) [Compound 29, (R)-4-((7-methoxyquinolin-4-yl)oxy)-N-(1-(1-methyl-1H-pyrazol-3-yl)ethyl)benzenesulfonimidamide] had an IC50 of less than 10 nM.
Turning to `COc1ccc2c(Oc3ccc([S@@](=N)(=O)NC(C)c4ccn(C)n4)cc3)ccnc2c1` (stereo partly drawn) [Compound 30, (S)-4-((7-methoxyquinolin-4-yl)oxy)-N-(1-(1-methyl-1H-pyrazol-3-yl)ethyl)benzenesulfonimidamide], the half-maximal inhibitory concentration (IC50) was less than 10 nM.
As for `COc1ccc2c(Oc3ccc([S@](=N)(=O)NC[C@@H](O)CO)cc3)ccnc2c1` [Compound 31, (R)-N-((R)-2,3-dihydroxypropyl)-4-((7-methoxyquinolin-4-yl)oxy)benzenesulfonimidamide], the figure is 10 to 100 nM; as for `COc1ccc2c(Oc3ccc([S@@](=N)(=O)NC[C@@H](O)CO)cc3)ccnc2c1` [Compound 32, (S)-N-((R)-2,3-dihydroxypropyl)-4-((7-methoxyquinolin-4-yl)oxy)benzenesulfonimidamide], less than 10 nM.
As for `COc1ccc2c(Oc3ccc([S@](=N)(=O)NC[C@H](O)CO)cc3)ccnc2c1` [Compound 33, (R)-N-((S)-2,3-dihydroxypropyl)-4-((7-methoxyquinolin-4-yl)oxy)benzenesulfonimidamide], the figure is 10 to 100 nM.
As for `COc1ccc2c(Oc3ccc([S@@](=N)(=O)NC[C@H](O)CO)cc3)ccnc2c1` [Compound 34, (S)-N-((S)-2,3-dihydroxypropyl)-4-((7-methoxyquinolin-4-yl)oxy)benzenesulfonimidamide], the figure is less than 10 nM; as for `COc1ccc2c(Nc3ccc([S@](=N)(=O)N[C@H](C)CO)cc3)ccnc2c1` [Compound 35, (R)-N-((R)-1-hydroxypropan-2-yl)-4-((7-methoxyquinolin-4-yl)amino)benzenesulfonimidamide], less than 10 nM; as for `COc1ccc2c(Nc3ccc([S@@](=N)(=O)N[C@H](C)CO)cc3)ccnc2c1` [Compound 36, (S)-N-((R)-1-hydroxypropan-2-yl)-4-((7-methoxyquinolin-4-yl)amino)benzenesulfonimidamide], less than 10 nM.
